Data taken from patent publication US20190351006A1, “METHODS OF ADMINISTRATION OF NMDA RECEPTOR AGONISTS” (Naurex Inc., priority 2017, published 2019).
Peptide text beside a SMILES is read from it.

Tests used:
C57BL/6J mice = assay: In vivo microdialysis of neurotransmitter efflux in mPFC and HIP; set-up: species or system Male C57BL/6J mice; settings: rapastinel 1 mg/kg subcu, ketamine 30 mg/kg
Experimental: (§1) Animals: Male C57BL/6J mice 22-25 g (21/2 to 3 month old) were used is these studies. Drugs: Rapastinel was obtained from SAI Life Sciences (India). Rapastinel, PCP, and ketamine were dissolved in 0.9% sterile saline (Sal). PCP and ketamine were administered intraperitoneally (ip), at a volume of 10 mL/kg body weight. Rapastinel was given subcutaneously (subcu), and rapamycin was given intracerebroventricularly (icy). Drug Treatments: Male C57BL/6J mice were randomly assigned to treatment groups of 10 per group. To develop the cognitive deficit, groups of 10 mice were treated with PCP (10 mg/kg i.p., twice a day for 7 days) followed by a 7-day washout period. Following the washout period, the subchronic PCP mice were tested to determine that an NOR deficit had been established. See Rajagopal et al 3,4. See FIG. 7, for treatment schedules. Behavior, in vivo Microdialysis (MD) and ICV Procedures—The procedures have been described in detail in References 3,10,11,12,13. See FIG. 7. for pictorial representations of drug treatment protocols. Rapastinel's ability to restore episodic memory (NOR) and cognitive flexibility (RL), like its antidepressant action in rodents, is mTOR dependent as indicated by blockade by ICV rapamycin. […]

scPCP-treated mice [1] = assay: Novel object recognition (NOR) in subchronic PCP (scPCP) mice; format: in vivo, Male C57BL/6J mice
Experimental: Animals: Male C57BL/6J mice 22-25 g (21/2 to 3 month old) were used is these studies. Drugs: Rapastinel was obtained from SAI Life Sciences (India). Rapastinel, PCP, and ketamine were dissolved in 0.9% sterile saline (Sal). PCP and ketamine were administered intraperitoneally (ip), at a volume of 10 mL/kg body weight. Rapastinel was given subcutaneously (subcu), and rapamycin was given intracerebroventricularly (icy). Drug Treatments: Male C57BL/6J mice were randomly assigned to treatment groups of 10 per group. To develop the cognitive deficit, groups of 10 mice were treated with PCP (10 mg/kg i.p., twice a day for 7 days) followed by a 7-day washout period. Following the washout period, the subchronic PCP mice were tested to determine that an NOR deficit had been established. See Rajagopal et al 3,4. See FIG. 7, for treatment schedules. Behavior, in vivo Microdialysis (MD) and ICV Procedures—The procedures have been described in detail in References 3,10,11,12,13. See FIG. 7. for pictorial representations of drug treatment protocols. Rapastinel's ability to restore episodic memory (NOR) and cognitive flexibility (RL), like its antidepressant action in rodents, is mTOR dependent as indicated by blockade by ICV rapamycin. […] Increase in cortical DA efflux, in transient and subchronic rescue by rapastinel, may be important for triggering neuroplastic changes in AMPAR modulation of the activity of principal neurons in mPFC and HIP.

scPCP-treated mice [2] = assay: Reversal learning (RL) task in subchronic PCP mice; format: in vivo, Male C57BL/6J mice
Experimental: as §1

[3] = PCP 10 mg/kg i.p. twice a day for 7 days, then 7-day washout

Structure (SMILES)	Neurotransmitter efflux in mPFC (C57BL/6J mice)	DI in NOR vs vehicle-treated mice (scPCP-treated mice [1]; [3])	Percent correct responses in RL vs veh-treated mice (scPCP-treated mice [2]; [3])	Duration of rescue of NOR deficit after subchronic rapastinel, 5 days (scPCP-treated mice [1]; scPCP mice, 1 mg/kg sc, b.i.d. for 5 days)	NOR deficit (DI), acute rapastinel (scPCP-treated mice [1]; scPCP mice, 1 mg/kg subcu, 30 min before AT)	Reversal of scPCP-induced NOR deficit, 5 day vs 3 day treatment (scPCP-treated mice [1]; scPCP mice, 1 mg/kg subcu, b.i.d. for 5 days)	NOR after a single acute dose once the subchronic effect had ended (scPCP-treated mice [1]; scPCP mice, single dose 1 mg/kg sc, 30 min prior to AT, week 10 (or week 11))	RL deficit (percent correct responses), acute rapastinel (scPCP-treated mice [2]; scPCP mice, 1 mg/kg sc, 30 min before reversal phase of the RL task)
CNC1(c2ccccc2Cl)CCCCC1=O (stereo not drawn) [Ketamine, ketamine, reference compound]	very large increases in the efflux of ACh, DA, 5-HT, DOPAC, 5-HIAA, and glutamate, and serine							
c1ccc(C2(N3CCCCC3)CCCCC2)cc1 [PCP, reference compound]		reduced DI	reduced percent correct responses					
C[C@@H](O)[C@H](N)C(=O)N1CCC[C@H]1C(=O)N1CCC[C@H]1C(=O)N[C@H](C(N)=O)[C@@H](C)O [rapastinel] (H-TPPT-NH2)	small selective increase in DA efflux			at least 10 weeks	rescued NOR deficit	longer compared to 3 day treatment	restored NOR	rescued RL deficit
